# Source: ChEMBL document CHEMBL3885861, “Open TG-GATES”
# Species on record: Rattus norvegicus
# Assay: Open TG-GATES - Regimen: Single
# Assay type: toxicity, organism-based, Sprague-Dawley
# Parameters: regimen Single, gender Male, age 6 weeks
# Conditions: in vivo, po, 0 mg/kg, route gavage, dose level Control; for APTT / Bas / Eos / Fbg / Hb / Ht / Lym / MCH / MCHC / MCV / Mono / Neu / PT / Plat / RBC / Ret / WBC: tissue Blood; for KIDNEY_L / KIDNEY_R / KIDNEY_TOTAL: tissue Kidney; for LIVER: tissue Liver; for A/G / ALP / ALT / AST / BUN / CRE / Ca / Cl / DBIL / GLC / IP / K / LDH / Na / PL / RALB / TBIL / TC / TG / TP / gamma-GTP: tissue Plasma
compound,measurement,setting,value
S=C=Nc1cccc2ccccc12 [1-NAPHTHYLISOTHIOCYANATE],TERMINAL_BW,3 h,224.9 g
same,APTT,3 h,18.6 s
same,Bas,3 h,0%
same,Eos,3 h,1%
same,Fbg,3 h,223 mg/dL
same,Hb,3 h,13.7 g/dL
same,Ht,3 h,37.8%
same,Lym,3 h,78%
same,MCH,3 h,22.1 pg
same,MCHC,3 h,36.2%
same,MCV,3 h,61 fL
same,Mono,3 h,2.6%
same,Neu,3 h,17.6%
same,PT,3 h,11.9 s
same,Plat,3 h,124.1 x10_4/uL
same,RBC,3 h,619.8 x10_4/ul
same,Ret,3 h,8.2%
same,WBC,3 h,101.9 x10_2/uL
same,KIDNEY_L,3 h,1 g
same,KIDNEY_R,3 h,1 g
same,KIDNEY_TOTAL,3 h,2 g
same,LIVER,3 h,10.2 g
same,A/G,3 h,1.6
same,ALP,3 h,937 IU/L
same,ALT,3 h,37.6 IU/L
same,AST,3 h,73 IU/L
same,BUN,3 h,11.2 mg/dL
same,CRE,3 h,0.4 mg/dL
same,Ca,3 h,10.9 mg/dL
same,Cl,3 h,103.4 meq/L
same,DBIL,3 h,0.07 mg/dL
same,GLC,3 h,200.8 mg/dL
same,IP,3 h,9.4 mg/dL
same,K,3 h,3.9 meq/L
same,LDH,3 h,189.2 IU/L
same,Na,3 h,141.6 meq/L
same,PL,3 h,161.6 mg/dL
same,RALB,3 h,3.4 g/dL
same,TBIL,3 h,0.1 mg/dL
same,TC,3 h,81 mg/dL
same,TG,3 h,82.2 mg/dL
same,TP,3 h,5.5 g/dL
same,gamma-GTP,3 h,1 IU/L
same,TERMINAL_BW,6 h,218.1 g
same,APTT,6 h,18.7 s
same,Bas,6 h,0.2%
same,Eos,6 h,0.8%
same,Fbg,6 h,232.2 mg/dL
same,Hb,6 h,13.4 g/dL
same,Ht,6 h,37.2%
same,Lym,6 h,76%
same,MCH,6 h,22 pg
same,MCHC,6 h,36%
same,MCV,6 h,61.2 fL
same,Mono,6 h,3.4%
same,Neu,6 h,18.4%
same,PT,6 h,11.8 s
same,Plat,6 h,128 x10_4/uL
same,RBC,6 h,609.2 x10_4/ul
same,Ret,6 h,7.2%
same,WBC,6 h,106.9 x10_2/uL
same,KIDNEY_L,6 h,1 g
same,KIDNEY_R,6 h,1 g
same,KIDNEY_TOTAL,6 h,2 g
same,LIVER,6 h,9.6 g
same,A/G,6 h,1.8
same,ALP,6 h,1087 IU/L
same,ALT,6 h,35.6 IU/L
same,AST,6 h,71.8 IU/L
same,BUN,6 h,10 mg/dL
same,CRE,6 h,0.4 mg/dL
same,Ca,6 h,10.6 mg/dL
same,Cl,6 h,103.8 meq/L
same,DBIL,6 h,0.07 mg/dL
same,GLC,6 h,192 mg/dL
same,IP,6 h,10 mg/dL
same,K,6 h,3.8 meq/L
same,LDH,6 h,167.6 IU/L
same,Na,6 h,141.8 meq/L
same,PL,6 h,142.8 mg/dL
same,RALB,6 h,3.5 g/dL
same,TBIL,6 h,0.1 mg/dL
same,TC,6 h,76.2 mg/dL
same,TG,6 h,63.8 mg/dL
same,TP,6 h,5.4 g/dL
same,gamma-GTP,6 h,1 IU/L
same,TERMINAL_BW,9 h,216.9 g
same,APTT,9 h,17.6 s
same,Bas,9 h,0.2%
same,Eos,9 h,0.8%
same,Fbg,9 h,234.6 mg/dL
same,Hb,9 h,13.3 g/dL
same,Ht,9 h,36.8%
same,Lym,9 h,75%
same,MCH,9 h,21.7 pg
same,MCHC,9 h,36.1%
same,MCV,9 h,60.1 fL
same,Mono,9 h,2.2%
same,Neu,9 h,20.8%
same,PT,9 h,12.2 s
same,Plat,9 h,121.1 x10_4/uL
same,RBC,9 h,612 x10_4/ul
same,Ret,9 h,6.9%
same,WBC,9 h,90.1 x10_2/uL
same,KIDNEY_L,9 h,0.9 g
same,KIDNEY_R,9 h,1 g
same,KIDNEY_TOTAL,9 h,1.9 g
same,LIVER,9 h,8.8 g
same,A/G,9 h,1.8
same,ALP,9 h,908.4 IU/L
same,ALT,9 h,28.8 IU/L
same,AST,9 h,57.4 IU/L
same,BUN,9 h,10.8 mg/dL
same,CRE,9 h,0.4 mg/dL
same,Ca,9 h,10.7 mg/dL
same,Cl,9 h,103.6 meq/L
same,DBIL,9 h,0.07 mg/dL
same,GLC,9 h,201.4 mg/dL
same,IP,9 h,10.3 mg/dL
same,K,9 h,4 meq/L
same,LDH,9 h,145.6 IU/L
same,Na,9 h,141.8 meq/L
same,PL,9 h,139 mg/dL
same,RALB,9 h,3.5 g/dL
same,TBIL,9 h,0.1 mg/dL
same,TC,9 h,74.4 mg/dL
same,TG,9 h,50.8 mg/dL
same,TP,9 h,5.5 g/dL
same,gamma-GTP,9 h,1 IU/L
same,TERMINAL_BW,24 h,234.7 g
same,APTT,24 h,17.8 s
same,Bas,24 h,0.4%
same,Eos,24 h,0.8%
same,Fbg,24 h,222.8 mg/dL
same,Hb,24 h,13.4 g/dL
same,Ht,24 h,37.5%
same,Lym,24 h,81.6%
same,MCH,24 h,22.2 pg
same,MCHC,24 h,35.6%
same,MCV,24 h,62.5 fL
same,Mono,24 h,3%
same,Neu,24 h,13.6%
same,PT,24 h,11.7 s
same,Plat,24 h,128.7 x10_4/uL
same,RBC,24 h,601 x10_4/ul
same,Ret,24 h,6.6%
same,WBC,24 h,91.3 x10_2/uL
same,KIDNEY_L,24 h,1 g
same,KIDNEY_R,24 h,1 g
same,KIDNEY_TOTAL,24 h,2 g
same,LIVER,24 h,10.8 g
same,A/G,24 h,1.6
same,ALP,24 h,1087.6 IU/L
same,ALT,24 h,37.8 IU/L
same,AST,24 h,75.8 IU/L
same,BUN,24 h,15.2 mg/dL
same,CRE,24 h,0.4 mg/dL
same,Ca,24 h,10.8 mg/dL
same,Cl,24 h,103.6 meq/L
same,DBIL,24 h,0.062 mg/dL
same,GLC,24 h,188.8 mg/dL
same,IP,24 h,7.6 mg/dL
same,K,24 h,3.9 meq/L
same,LDH,24 h,214.6 IU/L
same,Na,24 h,141.6 meq/L
same,PL,24 h,140.4 mg/dL
same,RALB,24 h,3.4 g/dL
same,TBIL,24 h,0.1 mg/dL
same,TC,24 h,70.8 mg/dL
same,TG,24 h,100.2 mg/dL
same,TP,24 h,5.6 g/dL
same,gamma-GTP,24 h,1.2 IU/L
